Test results published in patent publication US3991202A, “Imidazolium salts” (Janssen Pharmaceutica N.V., priority 1974, dated 1976).

Assays:
Format in all cases: cell-based
Erysipelothrix insidiosa = test: Antibacterial growth inhibition in phenol red dextrose broth; details: Erysipelothrix rhusiopathiae, 168 h; E. ins.; tested at 100, 10, 1 μg/ml; read-out: Concentration in μ g for 100% Growth Inhibition
Experimental: (§1) The tests on bacteria were performed on cultures on phenol red dextrose broth medium (Difco). By using decimal dilution techniques described for the tests for antifungal activity, test media containing 100 μg, 10 μg and 1 μg of imidazolium salt per milliliter of medium were obtained. The inoculum consisted of a platinum loop (5 mm diameter) from a 24 hour broth culture. Forty-eight hours after incubation, subcultures were made from each culture for the determination of antibacterial activity of the imidazolium salts. After seven days of incubation, observations were made to determine the presence or absence of bacterial growth.

Escherichia coli = test: as above; details: 168 h, E. coli, tested at 100, 10, 1 μg/ml, read-out: Concentration in μ g for 100% Growth Inhibition
Experimental: as §1

Pseudomonas aeruginosa = test: as above; details: 168 h, Ps. aer., tested at 100, 10, 1 μg/ml, read-out: Concentration in μ g for 100% Growth Inhibition
Experimental: as §1

[1] = test system: Salmonella pullorum gallinarum; test: as above; details: Salmonella enterica, 168 h; Sp. G.; tested at 100, 10, 1 μg/ml; read-out: Concentration in μ g for 100% Growth Inhibition
Experimental: as §1

[2] = test system: Staphylococcus hemolyticus; test: as above; details: 168 h, Staph., tested at 100, 10, 1 μg/ml, read-out: Concentration in μ g for 100% Growth Inhibition
Experimental: as §1

Streptococcus pyogenes = test: as above; details: 168 h, Strep., tested at 100, 10, 1 μg/ml, read-out: Concentration in μ g for 100% Growth Inhibition
Experimental: as §1

Cryptococcus neoformans = test: Antifungal growth inhibition in Sabouraud's liquid medium; details: Cryptococcus neoformans, 336 h; Cr.n.; tested at 100, 10, 1 μg/ml; read-out: Concentrations in μg/ml for 100% Inhibition of Growth
Experimental: (§2) Tests for the control of fungal organisms were performed using Sabouraud's liquid medium (1 g. of neopeptone Difco and 2 g. of glucose Difco per 100 ml. distilled water) in test tubes, each containing 4.5 ml. of liquid medium, autoclaved at 120° C for 15 minutes. The imidazolium salts were prepared for testing by dissolving in 50% ethanol to a concentration of 20 mg./ml. and thereafter diluting with sterile distilled water to obtain a concentration of 10 mg./ml. Successive decimal dilutions were then made with sterile distilled water to prepare a series of test solutions. In carrying out the test, 0.5 ml. of one of the test solutions is added to 4.5 ml. of Sabouraud's liquid medium to obtain a test medium. In this manner, from appropriate test solution, test media containing 100 μg, 10 μg and 1 μg of imidazolium salt per milliliter of medium were obtained.
(§3) Control tubes were prepared by adding 0.5 ml. of sterile distilled water to 4.5 ml. of medium. Ethanol was also added to simulate the amount which would be present in the test media. Filamentous fungi were incubated at 25° C for two to three weeks. A square block of side 2 mm. was excised and inoculated into the liquid medium. A 3-day old culture on Sabouraud's liquid medium was used for yeasts. The inoculum was 0.05 ml. per tube. All cultures were incubated at 25° C for 14 days.

[3] = test system: Ctenomyces mentagrophytes; test: as above; details: Trichophyton mentagrophytes, 336 h; Ct.m.; tested at 100, 10, 1 μg/ml; read-out: Concentrations in μg/ml for 100% Inhibition of Growth
Experimental: as §2, §3

Microsporum canis = test: as above; details: Microsporum canis, 336 h; M.c.; tested at 100, 10, 1 μg/ml; read-out: Concentrations in μg/ml for 100% Inhibition of Growth
Experimental: as §2, §3

Trichophyton rubrum = test: as above; details: Trichophyton rubrum, 336 h; Tr.r.; tested at 100, 10, 1 μg/ml; read-out: Concentrations in μg/ml for 100% Inhibition of Growth
Experimental: as §2, §3

| SMILES | MIC (Erysipelothrix insidiosa) [µg/mL] | MIC (Escherichia coli) [µg/mL] | MIC (Pseudomonas aeruginosa) [µg/mL] | MIC [1] [µg/mL] | MIC [2] [µg/mL] | MIC (Streptococcus pyogenes) [µg/mL] | MIC (Cryptococcus neoformans) [µg/mL] | MIC [3] [µg/mL] | MIC (Microsporum canis) [µg/mL] | MIC (Trichophyton rubrum) [µg/mL] |
| --- | --- | --- | --- | --- | --- | --- | --- | --- | --- | --- |
| Fc1ccc(C(c2ccccc2)[n+]2ccn(CC(OCc3ccc(Cl)cc3Cl)c3ccc(Cl)cc3Cl)c2)cc1 (stereo not drawn) | 1 | 10 | 100 | 10 | 1 | 1 |  |  |  |  |
| Clc1ccc(Cn2cc[n+](CC(OCc3c(Cl)cccc3Cl)c3ccc(Cl)cc3Cl)c2)c(Cl)c1.[Cl-] (stereo not drawn) [1-(2,4-Dichlorobenzyl)-3-[2,4-dichloro-β-(2,6-dichlorobenzyloxy)phenethyl]imidazolium chloride] | 1 | 10 | 100 | 10 | 1 | 1 |  |  |  |  |
| Cc1ccccc1NC(=O)C[n+]1ccn(CC(OCc2c(Cl)cccc2Cl)c2ccc(Cl)cc2Cl)c1 (stereo not drawn) [1-[2,4-dichloro-β-(2,6-dichlorobenzyloxy)phenethyl]-3-(N-o-tolylcarbamoylmethyl)imidazolium chloride] | 10 | 100 | 100 | 10 | 10 | 1 |  |  |  |  |
| O=C(C[n+]1ccn(CC(OCc2c(Cl)cccc2Cl)c2ccc(Cl)cc2Cl)c1)Nc1ccc(F)cc1 (stereo not drawn) [1-[2,4-dichloro-β-(2,6-dichlorobenzyloxy)phenethyl]-3-[N-(p-fluorophenyl)carbamoylmethyl]imidazolium chloride] | 1 | 10 | 100 | 10 | 1 | 1 |  |  |  |  |
| O.OC(C[n+]1ccn(CC(OCc2ccc(Cl)cc2)c2ccc(Cl)cc2Cl)c1)c1ccc(Cl)cc1.[Br-] (stereo not drawn) [2,4(Cl)2C6H3/CH2C6H4pCl/CH2CHOHC6H4pCl, 1-[β-(p-Chlorobenzyloxy)-2,4-dichlorophenethyl]-3-(p-chloro-β-hydroxyphenethyl)imidazolium bromide hydrate] | 1 | 10 | 100 | 10 | 1 | 1 |  |  |  |  |
| O=C(C[n+]1ccn(CC(OCc2ccc(Cl)cc2)c2ccc(Cl)cc2Cl)c1)c1ccc(F)cc1.[Cl-] (stereo not drawn) [2,4(Cl)2C6H3/CH2C6H4pCl/CH2COC6H4pF, 1-[2,4-Dichloro-β-(p-chlorobenzyloxy)phenethyl]-3-(p-fluorophenacyl)imidazolium chloride] | 1 | 100 | 100 | 10 | 1 | 1 |  |  |  |  |
| Fc1ccc(CC[n+]2ccn(CC(OCc3ccc(Cl)cc3Cl)c3ccc(Cl)cc3Cl)c2)cc1.O.[Br-] (stereo not drawn) [(CH2)2C6H4pF, 1-[2,4-Dichloro-β-(2,4-dichlorobenzyloxy)phenethyl]-3-(p-fluorophenethyl)imidazolium bromide hydrate] | 10 | 100 | 100 | 10 | 1 | 1 |  |  |  |  |
| COc1ccc(CC[n+]2ccn(CC(OCc3ccc(Cl)cc3Cl)c3ccc(Cl)cc3Cl)c2)cc1.[Cl-] (stereo not drawn) [(CH2)2C6H4pOCH3, 1-[2,4-dichloro-β-(2,4-dichlorobenzyloxy)phenethyl]-3-(p-methoxyphenethyl)imidazolium chloride] | 1 | 100 | 100 | 10 | 1 | 1 |  |  |  |  |
| Clc1ccc(COC(Cn2cc[n+](CCc3ccccc3)c2)c2ccc(Cl)cc2Cl)c(Cl)c1.[Br-] (stereo not drawn) [(CH2)2C6H5, 1-[2,4-Dichloro-β-(2,4-dichlorobenzyloxy)phenethyl]-3-phenethylimidazolium bromide] | 1 | 10 | 100 | 10 | 1 | 1 |  |  |  |  |
| O=C(CCn1cc[n+](CC(OCc2ccc(Cl)cc2Cl)c2ccc(Cl)cc2Cl)c1)Nc1ccccc1Cl.[Cl-] (stereo not drawn) [(CH2)2CONHC6H4oCl, 1-{2-[N-(o-Chlorophenyl)carbamoyl]ethyl}-3-[2,4-dichloro-β-(2,4-dichlorobenzyloxy)phenethyl]imidazolium chloride] | 1 | 10 | 100 | 10 | 1 | 1 |  |  |  |  |
| O=C(Cn1cc[n+](CC(OCc2ccc(Cl)cc2Cl)c2ccc(Cl)cc2Cl)c1)c1ccc(Cl)cc1Cl.[Cl-] (stereo not drawn) [CH2COC6H32,4(Cl)2, 1-(2,4-dichlorobenzoylmethyl)-3-[2,4-dichloro-β-(2,4-dichlorobenzyloxy)phenethyl]imidazolium chloride] |  |  |  |  |  |  | 1 | 1 | 10 | 1 |
| COc1cccc(NC(=O)C[n+]2ccn(CC(OCc3ccc(Cl)cc3Cl)c3ccc(Cl)cc3Cl)c2)c1 (stereo not drawn) [CH2CONHC6H4m(OCH3), hydrate] |  |  |  |  |  |  | 10 | 10 | 10 | 1 |
| O=C(C[n+]1ccn(CC(OCc2ccc(Cl)cc2Cl)c2ccc(Cl)cc2Cl)c1)Nc1ccccc1Cl (stereo not drawn) [CH2CONHC6H4oCl, 1-[N-(o-chlorophenyl)carbamoylmethyl]-3-[2,4-dichloro-β-(2,4-dichlorobenzyloxy)phenethyl]imidazolium chloride] |  |  |  |  |  |  | 10 | 10 | 10 | 1 |
| O=C(C[n+]1ccn(CC(OCc2ccc(Cl)cc2Cl)c2ccc(Cl)cc2Cl)c1)Nc1ccccc1Oc1ccccc1 (stereo not drawn) [CH2CONHC6H4oOPh, 1-[2,4-dichloro-β-(2,4-dichlorobenzyloxy)phenethyl]-3-[N-(o-phenoxyphenyl)carbamoylmethyl]imidazolium chloride hydrate] |  |  |  |  |  |  | 100 | 10 | 1 | 1 |
| O=C(C[n+]1ccn(CC(OCc2ccc(Cl)cc2Cl)c2ccc(Cl)cc2Cl)c1)NCc1ccccc1Cl (stereo not drawn) [CH2CONHCH2C6H4oCl, 1-[N-(o-Chlorobenzyl)carbamoylmethyl]3-[2,4-dichloroβ-(2,4-dichlorobenzyloxy)phenethyl]imidazolium chloride] |  |  |  |  |  |  | 100 | 10 | 1 | 1 |
| Fc1ccc(C(c2ccc(Cl)cc2)[n+]2ccn(CC(OCc3ccc(Cl)cc3Cl)c3ccc(Cl)cc3Cl)c2)cc1 (stereo not drawn) [drawing 61] |  |  |  |  |  |  | 100 | 10 | 10 | 1 |
| CCCCCCCC[n+]1ccn(CC(OCc2ccc(Cl)cc2Cl)c2ccc(Cl)cc2Cl)c1.[Br-] (stereo not drawn) [nC8H17, 1-[2,4-dichloro-β-(2,4-dichlorobenzyloxy)phenethyl]3-n-octylimidazolium bromide] |  |  |  |  |  |  | 100 | 10 | 10 | 1 |
| O=C(C[n+]1ccn(CC(OCc2ccc(Cl)cc2)c2ccc(Cl)cc2)c1)c1ccc(F)cc1 (stereo not drawn) [pClC6H4/CH2C6H4pCl/CH2COC6H4pF, 1-[p-Chloro-β-(p-chlorobenzyloxy)phenethyl]-3-(p-flurophenacyl)imidazolium chloride] |  |  |  |  |  |  | 10 | 10 | 10 | 10 |
| O=C(C[n+]1ccn(CC(OCc2ccc(Cl)cc2Cl)c2ccc(Cl)cc2)c1)c1ccc(F)cc1.[Cl-] (stereo not drawn) [pClC6H4/CH2C6H32,4(Cl)2/CH2COC6H4pF, 1-[p-chloro-β-(2,4-dichlorobenzyloxy)phenethyl]-3-(p-fluorophenacyl)imidazolium chloride] |  |  |  |  |  |  | 10 | 10 | 10 | 10 |
